These results are taken from patent EP1976513B1 (priority 2006, dated 2007).

Experiment [1] addresses T1, dopamine transporter (Rattus norvegicus, UniProt P23977).
T1 construct: synaptosomes isolated in a 0.32 M sucrose buffer from a male Wistar rat striatum; from tissue; host or cells: male Wistar rat striatum synaptosomes
Nature of the experiment: biochemical. The conditions noted are these: rat synaptosomes, dopamine transporter (DAT).

Experiment [2] has as its target T2, norepinephrine transporter (Rattus norvegicus, UniProt Q63380).
T2 construct: synaptosomes isolated in a 0.32 M sucrose buffer from a male Wistar rat hypothalamus; from tissue; host or cells: male Wistar rat hypothalamus synaptosomes
The experiment is described as follows: biochemical. Type of experiment: biochemical. The settings on record: rat synaptosomes, norepinephrine transporter (NET).

Experiment [3] addresses T3, serotonin transporter (Rattus norvegicus, UniProt P31652).
T3 construct: synaptosomes isolated in a 0.32M sucrose buffer from a male Wistar rat cortex; from tissue; host or cells: male Wistar rat cortex synaptosomes
The experiment is described as follows: biochemical. The settings on record: rat synaptosomes, serotonin transporter (SERT).

The target in experiment [4] is T4, 5-HT Transporter (SERT) Sites in Mouse Brain (Mus musculus, UniProt Q60857).
T4 construct: Whole brains were removed and cortex and striata dissected out; from tissue; host or cells: C57BL/6 mouse frontal cortex homogenate
T4 sequence (Q60857 whole entry): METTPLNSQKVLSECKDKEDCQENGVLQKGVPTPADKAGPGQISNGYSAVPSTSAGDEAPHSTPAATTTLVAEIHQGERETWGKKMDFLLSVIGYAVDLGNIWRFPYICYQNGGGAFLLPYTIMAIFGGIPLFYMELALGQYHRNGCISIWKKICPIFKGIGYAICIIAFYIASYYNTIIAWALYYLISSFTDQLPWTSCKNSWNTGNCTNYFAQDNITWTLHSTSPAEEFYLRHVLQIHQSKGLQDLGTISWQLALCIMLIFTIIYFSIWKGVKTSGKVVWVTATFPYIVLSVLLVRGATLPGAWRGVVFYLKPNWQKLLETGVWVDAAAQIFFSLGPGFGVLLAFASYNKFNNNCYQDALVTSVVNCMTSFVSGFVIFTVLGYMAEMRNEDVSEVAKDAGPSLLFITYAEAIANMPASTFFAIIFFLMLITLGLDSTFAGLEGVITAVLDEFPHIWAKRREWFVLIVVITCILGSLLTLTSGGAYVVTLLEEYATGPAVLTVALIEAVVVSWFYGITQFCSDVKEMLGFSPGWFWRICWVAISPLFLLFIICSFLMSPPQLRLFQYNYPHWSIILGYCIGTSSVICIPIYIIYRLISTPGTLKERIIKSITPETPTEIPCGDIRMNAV
Nature of the experiment: Ex vivo [3H] citalopram binding after oral dosing. Details: species or system C57BL/6 mice. The conditions noted are these: for % Transporter Occupancy, SERT: 60 minutes after treatment, vs vehicle; for Mean Specific Binding (dpm) ± S.E.M., SERT: mice sacrificed 60 minutes after treatment, cortex.

The test system of experiment [5] is mice. Nature of the experiment: Mouse locomotor activity. The conditions noted are these: PO. Type of experiment: in vivo. In a few lines: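 Animals pretreated with vehicle or compound, then placed individually in photocell cages. Horizontal and vertical activity recorded in 5-min bins for up to 60 min. Analysed by one-way ANOVA with post-hoc tests.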
Experiment [6] has as its system mice. The experiment is described as follows: Mouse tail suspension test. The conditions noted are these: PO, 30-60 minutes before the test, 5 minutes recording. Type of experiment: in vivo.
Experiment [7] deals with Norepinephrine Transporter (NET) Sites in Mouse Brain (Mus musculus, UniProt O55192). The settings on record: PO; for % Transporter Occupancy, NET: 60 minutes after treatment, vs vehicle; for Mean Specific Binding (dpm) ± S.E.M., NET: mice sacrificed 60 minutes after treatment, cortex.
Chain of Norepinephrine Transporter (NET) Sites in Mouse Brain (O55192 whole entry): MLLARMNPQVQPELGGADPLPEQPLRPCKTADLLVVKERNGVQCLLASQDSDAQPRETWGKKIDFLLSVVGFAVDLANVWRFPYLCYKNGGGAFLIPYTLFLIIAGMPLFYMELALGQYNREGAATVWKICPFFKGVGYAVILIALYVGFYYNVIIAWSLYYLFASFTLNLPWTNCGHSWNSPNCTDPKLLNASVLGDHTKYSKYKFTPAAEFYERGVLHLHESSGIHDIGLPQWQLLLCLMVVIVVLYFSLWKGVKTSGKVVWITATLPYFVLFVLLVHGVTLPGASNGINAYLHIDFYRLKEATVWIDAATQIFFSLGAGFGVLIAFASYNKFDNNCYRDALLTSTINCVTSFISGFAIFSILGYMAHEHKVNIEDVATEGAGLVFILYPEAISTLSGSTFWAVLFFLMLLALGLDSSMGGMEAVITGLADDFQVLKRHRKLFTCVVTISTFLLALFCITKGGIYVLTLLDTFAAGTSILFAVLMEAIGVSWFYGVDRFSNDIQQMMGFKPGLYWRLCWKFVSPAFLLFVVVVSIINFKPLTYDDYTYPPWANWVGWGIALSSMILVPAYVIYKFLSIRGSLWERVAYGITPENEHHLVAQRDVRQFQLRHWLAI
For experiment [8], the system named is Rats. The experiment is described as follows: Rat forced swim test. Type of experiment: in vivo. The settings on record: PO, 24 hours and 30-60 minutes before the 5 minute test.
The target in experiment [9] is T5, DA Transporter (DAT) Sites in Mouse Brain (Mus musculus, UniProt Q61327).
T5 construct: Striatum was used to determine occupancy of DA transporter sites; from tissue; host or cells: C57BL/6 mouse striatum homogenate
T5 sequence (Q61327 whole entry): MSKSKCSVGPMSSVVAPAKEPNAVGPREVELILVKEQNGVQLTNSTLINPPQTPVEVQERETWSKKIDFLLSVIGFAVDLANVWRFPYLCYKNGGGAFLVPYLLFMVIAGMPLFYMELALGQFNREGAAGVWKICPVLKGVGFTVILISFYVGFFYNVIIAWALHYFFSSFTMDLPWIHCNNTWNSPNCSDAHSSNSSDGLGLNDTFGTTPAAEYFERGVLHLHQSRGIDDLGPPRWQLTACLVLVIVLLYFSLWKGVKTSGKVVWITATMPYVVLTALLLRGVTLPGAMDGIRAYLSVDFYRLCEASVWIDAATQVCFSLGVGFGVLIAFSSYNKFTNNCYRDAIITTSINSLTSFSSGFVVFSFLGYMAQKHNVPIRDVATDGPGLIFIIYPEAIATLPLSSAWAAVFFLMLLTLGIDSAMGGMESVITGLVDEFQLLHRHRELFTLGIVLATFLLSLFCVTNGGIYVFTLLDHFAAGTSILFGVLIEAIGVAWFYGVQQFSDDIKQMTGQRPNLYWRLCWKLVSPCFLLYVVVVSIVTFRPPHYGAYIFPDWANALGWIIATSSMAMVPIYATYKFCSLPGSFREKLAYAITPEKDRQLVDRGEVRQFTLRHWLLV
The experiment is described as follows: Ex vivo [3H] WIN 35428 binding after oral dosing. Also noted: species or system C57BL/6 mice. The conditions noted are these: for % Transporter Occupancy, DAT: 60 minutes after treatment, vs vehicle; for Mean Specific Binding (dpm) ± S.E.M., DAT: mice sacrificed 60 minutes after treatment, striatum.

Experiment [10] relates to Rats. The experiment is described as follows: Rat locomotor activity. Type of experiment: in vivo. The settings on record: PO. The procedure:
In order to ensure effects of the compounds on immobility time were not related to a general stimulant effect on baseline motor activity, locomotor activity was assessed using photocell monitored cages (Med-Associates Inc.). Each test chamber was equipped with infrared photocell beams to measure movement of the animals. Horizontal and vertical activity were measured
Rats or mice were pretreated with vehicle or test compounds and placed back in home cage, following which they will be individually placed in locomotor cages and activity was monitored in 5 minute intervals for up to 60 min.
Data were analyzed by one way analysis of variance (ANOVA) followed by post-hoc comparisons where appropriate. An effect was considered significant if p < 0.05. Data are represented as the mean and standard error to the mean (s.e.m).

For experiment [11], the target named is serotonin uptake sites (Homo sapiens, UniProt P31645). The settings on record: compared with the racemic compound; U.S. Patent No. 6,372,919; cited from earlier work.
For experiment [12] the following is noted: literature; cited from earlier work.
Experiment [13] addresses human serotonin reuptake transporter (Homo sapiens, UniProt P31645). Nature of the experiment: cell-based. The conditions noted are these: recombinant human serotonin transporter (SERT).
Experiment [14] deals with T6, human dopamine reuptake transporter (Homo sapiens, UniProt Q01959).
T6 construct: expressed in transfected cells; host or cells: CHO-K1 or HEK293
T6 sequence (Q01959 whole entry): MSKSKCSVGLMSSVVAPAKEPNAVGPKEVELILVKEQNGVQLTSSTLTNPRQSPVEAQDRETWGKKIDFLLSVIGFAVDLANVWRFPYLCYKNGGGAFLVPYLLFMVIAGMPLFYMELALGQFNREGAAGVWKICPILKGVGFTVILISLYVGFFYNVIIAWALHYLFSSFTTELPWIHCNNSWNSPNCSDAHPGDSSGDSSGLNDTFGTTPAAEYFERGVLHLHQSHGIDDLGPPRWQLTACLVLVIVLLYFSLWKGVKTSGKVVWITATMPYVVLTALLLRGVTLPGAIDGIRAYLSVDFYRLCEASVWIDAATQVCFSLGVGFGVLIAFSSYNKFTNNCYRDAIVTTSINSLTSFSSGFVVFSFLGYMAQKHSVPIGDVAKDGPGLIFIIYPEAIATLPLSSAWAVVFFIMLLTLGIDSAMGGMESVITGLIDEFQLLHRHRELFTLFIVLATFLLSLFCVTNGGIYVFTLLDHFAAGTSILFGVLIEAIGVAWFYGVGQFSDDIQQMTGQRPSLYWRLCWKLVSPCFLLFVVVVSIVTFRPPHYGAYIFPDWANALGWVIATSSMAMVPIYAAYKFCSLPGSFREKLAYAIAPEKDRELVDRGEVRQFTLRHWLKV
The experiment is described as follows: cell-based. The conditions noted are these: recombinant human dopamine transporter (DAT); read-out: Human IC50 (nM) hDAT.

In experiment [15] the target is human norepinephrine reuptake transporter (Homo sapiens, UniProt P23975). Nature of the experiment: cell-based. The settings on record: recombinant human norepinephrine transporter (NET); read-out: Human IC50 (nM) hNET.
Chain of human norepinephrine reuptake transporter (P23975 whole entry): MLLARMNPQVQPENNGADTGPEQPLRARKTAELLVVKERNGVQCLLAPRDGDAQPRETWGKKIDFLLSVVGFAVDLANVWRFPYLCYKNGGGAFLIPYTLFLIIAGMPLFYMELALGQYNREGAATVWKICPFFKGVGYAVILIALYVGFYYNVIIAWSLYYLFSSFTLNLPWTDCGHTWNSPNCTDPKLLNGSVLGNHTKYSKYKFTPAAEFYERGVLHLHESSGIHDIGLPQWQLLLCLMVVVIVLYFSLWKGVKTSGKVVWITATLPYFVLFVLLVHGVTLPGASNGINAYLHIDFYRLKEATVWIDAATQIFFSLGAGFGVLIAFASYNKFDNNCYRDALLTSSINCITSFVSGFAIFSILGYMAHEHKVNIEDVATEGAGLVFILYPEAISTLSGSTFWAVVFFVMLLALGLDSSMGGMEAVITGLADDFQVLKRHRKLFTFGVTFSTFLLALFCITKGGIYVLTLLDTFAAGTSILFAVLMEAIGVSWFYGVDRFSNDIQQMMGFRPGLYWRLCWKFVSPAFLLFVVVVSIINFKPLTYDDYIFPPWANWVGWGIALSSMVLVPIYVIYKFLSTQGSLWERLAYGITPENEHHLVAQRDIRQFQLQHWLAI

Structures are written as SMILES. Structures can show the parent of a compound that is named as a salt. Where two headings read alike, the source gives them in different places. A value given as a limit tells only on which side of the number the result lay.

T3 sequence (P31652 whole entry): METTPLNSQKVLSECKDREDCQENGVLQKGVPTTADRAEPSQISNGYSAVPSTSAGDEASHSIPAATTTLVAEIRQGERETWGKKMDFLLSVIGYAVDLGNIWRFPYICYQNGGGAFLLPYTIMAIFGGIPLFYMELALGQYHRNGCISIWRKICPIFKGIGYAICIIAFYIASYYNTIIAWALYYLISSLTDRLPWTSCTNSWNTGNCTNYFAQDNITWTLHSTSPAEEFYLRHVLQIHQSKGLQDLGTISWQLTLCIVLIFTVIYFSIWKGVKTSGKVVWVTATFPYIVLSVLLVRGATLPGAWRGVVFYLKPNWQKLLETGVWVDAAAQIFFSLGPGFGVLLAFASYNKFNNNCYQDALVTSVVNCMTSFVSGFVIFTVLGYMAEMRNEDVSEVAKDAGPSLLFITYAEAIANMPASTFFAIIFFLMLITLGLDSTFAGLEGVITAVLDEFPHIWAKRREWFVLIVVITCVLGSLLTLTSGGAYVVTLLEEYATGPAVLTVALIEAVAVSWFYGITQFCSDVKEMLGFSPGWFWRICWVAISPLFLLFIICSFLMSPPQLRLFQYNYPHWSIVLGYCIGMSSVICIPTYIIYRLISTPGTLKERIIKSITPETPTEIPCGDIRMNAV
T1 sequence (P23977 whole entry): as the sequence (Q61327 whole entry) above, with P21S, V57A, S194A, R600H, V619L counted along it
T2 sequence (Q63380 1-617): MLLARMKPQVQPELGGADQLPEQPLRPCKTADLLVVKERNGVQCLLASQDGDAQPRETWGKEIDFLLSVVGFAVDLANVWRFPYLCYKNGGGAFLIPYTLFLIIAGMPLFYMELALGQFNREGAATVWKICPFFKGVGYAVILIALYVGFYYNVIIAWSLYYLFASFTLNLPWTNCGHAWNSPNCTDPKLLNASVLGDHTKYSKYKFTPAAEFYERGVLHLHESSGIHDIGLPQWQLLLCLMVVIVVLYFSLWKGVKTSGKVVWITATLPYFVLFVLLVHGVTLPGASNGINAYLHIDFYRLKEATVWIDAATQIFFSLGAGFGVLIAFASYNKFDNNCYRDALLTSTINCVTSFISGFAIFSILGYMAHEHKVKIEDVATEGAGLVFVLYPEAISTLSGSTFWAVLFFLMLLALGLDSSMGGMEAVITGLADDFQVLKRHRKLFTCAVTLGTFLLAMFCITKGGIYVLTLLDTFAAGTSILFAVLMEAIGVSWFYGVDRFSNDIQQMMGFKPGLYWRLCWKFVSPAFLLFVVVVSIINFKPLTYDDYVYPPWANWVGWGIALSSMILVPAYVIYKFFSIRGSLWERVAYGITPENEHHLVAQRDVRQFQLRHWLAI
Chain of human serotonin reuptake transporter (P31645 whole entry): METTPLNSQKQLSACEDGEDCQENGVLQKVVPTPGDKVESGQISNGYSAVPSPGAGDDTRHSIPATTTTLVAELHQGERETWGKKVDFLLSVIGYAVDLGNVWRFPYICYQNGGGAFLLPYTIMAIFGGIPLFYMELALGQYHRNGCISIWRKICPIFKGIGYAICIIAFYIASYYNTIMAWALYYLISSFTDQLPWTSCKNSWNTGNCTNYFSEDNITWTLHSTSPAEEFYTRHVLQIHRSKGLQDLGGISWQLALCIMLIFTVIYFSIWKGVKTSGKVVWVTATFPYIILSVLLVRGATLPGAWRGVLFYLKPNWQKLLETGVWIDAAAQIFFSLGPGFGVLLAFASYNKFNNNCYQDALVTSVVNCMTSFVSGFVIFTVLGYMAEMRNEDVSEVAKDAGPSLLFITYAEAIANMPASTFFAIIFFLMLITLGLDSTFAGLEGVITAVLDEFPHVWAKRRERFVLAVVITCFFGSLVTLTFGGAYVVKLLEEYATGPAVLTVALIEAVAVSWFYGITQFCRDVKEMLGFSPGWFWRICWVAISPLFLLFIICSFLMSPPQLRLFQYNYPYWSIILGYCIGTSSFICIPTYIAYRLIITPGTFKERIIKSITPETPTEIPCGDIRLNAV

As a reminder, the IC50 is the concentration needed to halve the response being measured. For the molecule `CNC[C@]1(c2ccc3ccccc3c2)CCCC[C@@H]1O` (single isomer, unassigned) [147 E2], the half-inhibitory concentration (IC50) in [1] (read-out: Rat IC50 (nM) rDAT) was 1500 nM; in experiment [2] (read-out: Rat IC50 (nM) rNET), 1200 nM; in experiment [3] (read-out: Rat IC50 (nM) rSERT) it was 1700 nM.
The corresponding values for `CNC[C@@]1(c2ccc3ccccc3c2)CCCC[C@H]1O` (single isomer, unassigned) [147 E1] are 1200 nM, 370 nM and 18 nM.
With `CC(N(C)C)C1(c2ccc3ccccc3c2)CCCCC1` (single isomer, unassigned) [56 E2, N,N-dimethyl-1-(1-(naphthalen-2-yl)cyclohexyl)ethanamine], the IC50 was found to be 100 nM in experiment [1] (Rat IC50 (nM) rDAT), 79 nM in [2] (Rat IC50 (nM) rNET) and 120 nM in experiment [3] (Rat IC50 (nM) rSERT).
Consider `CC(N(C)C)C1(c2ccc3ccccc3c2)CCCCC1` (single isomer, unassigned) [56 E1, N,N-dimethyl-1-(1-(naphthalen-2-yl)cyclohexyl)ethanamine], for which the “% Transporter Occupancy, SERT” value in experiment [4] (1 mg/kg) worked out at 19%; in experiment [4] (3 mg/kg) it was 58%; in [4] (10 mg/kg) it was 91%; in experiment [4] (30 mg/kg) it was 95%. Further, the “Mean Specific Binding (dpm) ± S.E.M., SERT” value in [4] (1 mg/kg) was 2625 ± 138 dpm; in experiment [4] (3 mg/kg) it was 1346 ± 109 dpm; in experiment [4] (10 mg/kg), 278 ± 42 dpm; in experiment [4] (30 mg/kg) it was 151 ± 60 dpm. Further, the “Mouse Locomotor Activity Total Distance Traveled ± S.E.M.” value stood at 410.2 ± 89.3 in experiment [5] (3 mg/kg), 440.2 ± 62.6 in [5] (10 mg/kg) and 252.2 ± 55.8 in [5] (30 mg/kg). The 50% inhibitory concentration (IC50) amounted to 24 nM in [1] (Rat IC50 (nM) rDAT), 2.3 nM in experiment [2] (Rat IC50 (nM) rNET) and 2.9 nM in [3] (Rat IC50 (nM) rSERT). Further, the “Mouse Tail Suspension Mean Immobility Time ± S.E.M.” value is reported as 184.0 ± 4.8 in experiment [6] (3 mg/kg), 174.8 ± 6.1 in [6] (10 mg/kg) and 141.9 ± 7.4 in [6] (30 mg/kg). In addition, the “% Transporter Occupancy, NET” value in experiment [7] (1 mg/kg) was 20%; in [7] (3 mg/kg) it was 52%; in [7] (10 mg/kg), 86%; in experiment [7] (30 mg/kg) it was 98%. Also, the “Mean Specific Binding (dpm) ± S.E.M., NET” value in experiment [7] (1 mg/kg) amounted to 616 ± 50 dpm; in experiment [7] (3 mg/kg), 368 ± 17 dpm; in [7] (10 mg/kg), 106 ± 20 dpm; in [7] (30 mg/kg), 19 ± 2 dpm. In addition, the “Rat Forced Swim (Means ± S.E.M.) Climbing” value in [8] (3 mg/kg) came out at 7.1 ± 1.6; in experiment [8] (10 mg/kg), 8.6 ± 0.9; in [8] (30 mg/kg) it was 17.9 ± 2.4. Besides, the “Rat Forced Swim (Means ± S.E.M.) Immobility” value in [8] (3 mg/kg) was found to be 52.2 ± 1.6; in experiment [8] (10 mg/kg), 50.7 ± 1.0; in experiment [8] (30 mg/kg), 40.4 ± 2.7. Further, the “Rat Forced Swim (Means ± S.E.M.) Swimming” value in [8] (3 mg/kg) came out at 0.3 ± 0.2; in experiment [8] (10 mg/kg) it was 0.8 ± 0.3; in experiment [8] (30 mg/kg) it was 1.0 ± 0.4. Moreover, the “% Transporter Occupancy, DAT” value in experiment [9] (1 mg/kg) came out at 5%; in experiment [9] (3 mg/kg), 4%; in experiment [9] (10 mg/kg) it was 23%; in experiment [9] (30 mg/kg), 67%. Further, the “Mean Specific Binding (dpm) ± S.E.M., DAT” value in experiment [9] (1 mg/kg) stood at 41561 ± 1611 dpm; in experiment [9] (3 mg/kg), 42127 ± 2130 dpm; in experiment [9] (10 mg/kg), 33478 ± 1779 dpm; in [9] (30 mg/kg), 14637 ± 1567 dpm. Besides, the results for the “Rat Locomotor Activity Total Distance Traveled ± S.E.M.” value in experiment [10] (3 mg/kg), in [10] (10 mg/kg) and in experiment [10] (30 mg/kg) were 1227.9 ± 84.4, 1230.8 ± 64.8 and 1359.8 ± 132.7, respectively.
Regarding `Clc1ccc(C23CNCC2C3)cc1Cl` (single isomer, unassigned; (+)) [DOV 21,947, (+)-1-(3,4-dichlorophenyl)-3-azabicyclo[3.1.0]hexane], in experiment [11], the “affinity for the serotonin uptake sites” value is “significantly greater affinity”. Besides, in experiment [12], the “immobility in the tail suspension test” value is “dose-dependent reduction in immobility”.
With `CNCC1(c2ccccc2)CCCCC1` [Compound 80, N-methyl(1-phenylcyclohexyl)methanamine (hydrochloride)], the half-inhibitory concentration (IC50) was 9170 nM in experiment [13] (read-out: Human IC50 (nM) hSERT), above 10000 nM in experiment [14] and above 10000 nM in experiment [15].
On to `NCC1(c2ccc(Cl)cc2Cl)CCCCC1` [Compound 38, (1-(2,4-dichlorophenyl)cyclohexyl)methanamine], for which the IC50 is 472 nM in experiment [13] (Human IC50 (nM) hSERT), 9650 nM in experiment [14] and above 10000 nM in experiment [15].
As for `CNC[C@@]1(c2ccc3ccccc3c2)CCCC[C@@H]1O` (single isomer, unassigned) [148 E2], the half-inhibitory concentration (IC50) in experiment [1] (read-out: Rat IC50 (nM) rDAT) is 680 nM; in [2] (read-out: Rat IC50 (nM) rNET), 4900 nM; in experiment [3] (read-out: Rat IC50 (nM) rSERT), 330 nM.
